Values after ≈ are worked out from the molar mass of the structure shown. Marks after values point to notes of the source that are not given here. Non-standard residues stand in square brackets, D forms with d. Residues, ends and D or L forms follow the SMILES beside them. d2Nal = N[C@H](Cc1ccc2ccccc2c1)C(=O)O
How the values were obtained:
[1] = tested on: Shigella flexneri ATCC 12022; experiment: MIC against clinically common bacterial strain; assay type: cell-based
In short: (§1)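 Broth microdilution (CLSI), twofold steps, MIC endpoint, 5× in parallel.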

rabbit red blood cells = assay type: cell-based; conditions: red cells of rabbit, 1 h
[2] = Serum stability assay (residual level by RP-HPLC); conditions: human
[3] = tested on: Staphylococcus aureus (NRS 384); conditions: NRS 384, 3 h
Experimental: Trypsin (250 U/mg, pH=8.0) and AMPs (LV-1 to LV-30) were mixed in a ratio of 1:10 (w/w) and added to a reaction buffer (0.2 M sodium phosphate, 1 mM CaCl2), pH 7.5), and then incubated at 37° C. for 3 h.

[4] = tested on: Candida glabrata ATCC 15126; assay type: cell-based
In short: as §1

[5] = tested on: Escherichia coli ATCC 25922; assay type: cell-based
In short: as §1

[6] = tested on: Klebsiella pneumoniae ATCC 700603; assay type: cell-based
In short: as §1

[7] = tested on: Salmonella typhimurium ATCC 14028; assay type: cell-based
In short: as §1

[8] = tested on: Pseudomonas aeruginosa ATCC 27853; assay type: cell-based
In short: as §1

[9] = tested on: Bacillus subtilis ATCC 6633; assay type: cell-based
In short: as §1

Candida krusei ATCC 6258 = assay type: cell-based
In short: as §1

Enterococcus ATCC 29212 = assay type: cell-based
In short: as §1

[10] = tested on: Candida tropicalis ATCC 750; assay type: cell-based
In short: as §1

[11] = tested on: Trichophyton ATCC MYA-4438; assay type: cell-based
In short: as §1

[12] = tested on: Staphylococcus aureus ATCC 25923; assay type: cell-based
In short: as §1

[13] = tested on: Serratia marcescens ATCC 29021; assay type: cell-based
In short: as §1

[14] = tested on: Candida albicans ATCC MYA-2876; assay type: cell-based
In short: as §1

[15] = tested on: Corynebacterium ATCC 7715; assay type: cell-based
In short: as §1

Candida utilis ATCC 9950 = assay type: cell-based
In short: as §1

[16] = tested on: Escherichia coli ATCC 25922; experiment: Oral formulations on mice with systemic bacterial infection; assay type: in vivo, ICR mice; conditions: three times a day for 7 days; for Number of mice that died on each day after infection: day 4 / Number of mice that died on each day after infection: day 5 / Number of mice that died on each day after infection: day 6 / Number of mice that died on each day after infection: day 7 / Number of mice that died on each day after infection: day 8 / Average survival times (Days): n = 10; for Average survival times (Days): observed for 14 d; for survival time of mice infected with Escherichia coli: gavage, observed 14 d
In short: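 ICR mice of both sexes, 10 per group, infected i.p. with 0.2 mL E. coli ATCC 25922 at 1×10^7 CFU/mL. Compounds gavaged by body weight immediately after infection, three times daily for 7 days; deaths and survival time recorded over 14 d observation.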

Row | SMILES | MIC Shigella flexneri ATCC 12022 [1] [µg/mL] | MHC (minimum hemolytic concentration, lowest concentration causing 10% hemolysis) (rabbit red blood cells) [µg/mL] | remaining at 12 h, 0.91 mg/mL [2] [%] | Trypsin MIC [3] [µg/mL] | MIC Candida glabrata ATCC 15126 [4] [µg/mL] | MIC Escherichia coli ATCC 25922 [5] [µg/mL] | MIC Klebsiella pneumoniae ATCC 700603 [6] [µg/mL] | MIC Salmonella typhimurium ATCC 14028 [7] [µg/mL] | MIC Pseudomonas aeruginosa ATCC 27853 [8] [µg/mL] | MIC Bacillus subtilis ATCC 6633 [9] [µg/mL] | MIC Candida krusei ATCC 6258 (Candida krusei ATCC 6258) [µg/mL] | MIC Enterococcus ATCC 29212 (Enterococcus ATCC 29212) [µg/mL] | MIC Candida tropicalis ATCC 750 [10] [µg/mL] | MIC Trichophyton ATCC MYA-4438 [11] [µg/mL] | MIC Staphylococcus aureus ATCC 25923 [12] [µg/mL] | MIC Serratia marcescens ATCC 29021 [13] [µg/mL] | MIC Candida albicans ATCC MYA-2876 [14] [µg/mL] | MIC Corynebacterium ATCC 7715 [15] [µg/mL] | MIC Candida utilis ATCC 9950 (Candida utilis ATCC 9950) [µg/mL] | Number of mice that died on each day after infection: day 4 ([16]; 0.2 mg/kg gavage) [Mouse] | further results
1 | CC(=O)N[C@H](CCCCN)C(=O)N[C@H](CCCCN)C(=O)N[C@H](CC(C)C)C(=O)N[C@H](CC(C)C)C(=O)N[C@H](Cc1ccc2ccccc2c1)C(=O)N[C@H](CCCNC(=N)N)C(=O)N[C@H](CC(C)C)C(=O)N[C@H](CCCCN)C(=O)N[C@H](Cc1ccc2ccccc2c1)C(=O)N[C@H](CCCNC(=N)N)C(=O)N[C@H](CCCCN)C(N)=O [LV-19] (Ac-[dK][dK][dL][dL][d2Nal][dR][dL][dK][d2Nal][dR][dK]-NH2) | 4 (≈ 2.47 µM) | >1000 | 98.1 | 1 | 8 (≈ 4.94 µM) | 1 (≈ 0.618 µM) | 2 (≈ 1.24 µM) | 2 (≈ 1.24 µM) | 1 (≈ 0.618 µM) | 8 (≈ 4.94 µM) | 16 (≈ 9.89 µM) | 2 (≈ 1.24 µM) | 4 (≈ 2.47 µM) | 8 (≈ 4.94 µM) | 1 (≈ 0.618 µM) | 8 (≈ 4.94 µM) | 8 (≈ 4.94 µM) | 2 (≈ 1.24 µM) | 8 (≈ 4.94 µM) | 0 | Number of mice that died on each day after infection: day 5 ([16]; 0.2 mg/kg gavage): 2 Mouse; Number of mice that died on each day after infection: day 6 ([16]; 0.2 mg/kg gavage): 1 Mouse; Number of mice that died on each day after infection: day 7 ([16]; 0.2 mg/kg gavage): 2 Mouse; Number of mice that died on each day after infection: day 8 ([16]; 0.2 mg/kg gavage): 1 Mouse; Average survival times (Days) ([16]; 0.2 mg/kg gavage): 9.4** Days; Number of mice that died on each day after infection: day 4 ([16]; 1 mg/kg gavage): 0 Mouse; Number of mice that died on each day after infection: day 5 ([16]; 1 mg/kg gavage): 1 Mouse; Number of mice that died on each day after infection: day 6 ([16]; 1 mg/kg gavage): 1 Mouse; Number of mice that died on each day after infection: day 7 ([16]; 1 mg/kg gavage): 1 Mouse; Number of mice that died on each day after infection: day 8 ([16]; 1 mg/kg gavage): 0 Mouse; Average survival times (Days) ([16]; 1 mg/kg gavage): 11.6**** Days; Number of mice that died on each day after infection: day 4 ([16]; 5 mg/kg gavage): 0 Mouse; Number of mice that died on each day after infection: day 5 ([16]; 5 mg/kg gavage): 2 Mouse; Number of mice that died on each day after infection: day 6 ([16]; 5 mg/kg gavage): 1 Mouse; Number of mice that died on each day after infection: day 7 ([16]; 5 mg/kg gavage): 1 Mouse; Number of mice that died on each day after infection: day 8 ([16]; 5 mg/kg gavage): 0 Mouse; Average survival times (Days) ([16]; 5 mg/kg gavage): 10.7*** Days; survival time of mice infected with Escherichia coli [16]: superior to those of the Levofloxacin group
2 | CC(=O)N[C@H](CCCNC(=N)N)C(=O)N[C@H](CCCCN)C(=O)N[C@H](CC(C)C)C(=O)N[C@H](CC(C)C)C(=O)N[C@H](Cc1ccc2ccccc2c1)C(=O)N[C@H](CCCNC(=N)N)C(=O)N[C@H](CC(C)C)C(=O)N[C@H](CCCCN)C(=O)N[C@H](Cc1ccc2ccccc2c1)C(=O)N[C@H](CCCNC(=N)N)C(=O)N[C@H](CCCCN)C(N)=O [LV-20] (Ac-[dR][dK][dL][dL][d2Nal][dR][dL][dK][d2Nal][dR][dK]-NH2) | 4 (≈ 2.43 µM) | >1000 | 98.2 | 1 | 8 (≈ 4.86 µM) | 1 (≈ 0.607 µM) | 2 (≈ 1.21 µM) | 1 (≈ 0.607 µM) | 1 (≈ 0.607 µM) | 2 (≈ 1.21 µM) | 8 (≈ 4.86 µM) | 4 (≈ 2.43 µM) | 8 (≈ 4.86 µM) | 8 (≈ 4.86 µM) | 1 (≈ 0.607 µM) | 2 (≈ 1.21 µM) | 4 (≈ 2.43 µM) | 2 (≈ 1.21 µM) | 8 (≈ 4.86 µM) | 1 | Number of mice that died on each day after infection: day 5 ([16]; 0.2 mg/kg gavage): 1 Mouse; Number of mice that died on each day after infection: day 6 ([16]; 0.2 mg/kg gavage): 2 Mouse; Number of mice that died on each day after infection: day 7 ([16]; 0.2 mg/kg gavage): 2 Mouse; Number of mice that died on each day after infection: day 8 ([16]; 0.2 mg/kg gavage): 0 Mouse; Average survival times (Days) ([16]; 0.2 mg/kg gavage): 9.1** Days; Number of mice that died on each day after infection: day 4 ([16]; 1 mg/kg gavage): 1 Mouse; Number of mice that died on each day after infection: day 5 ([16]; 1 mg/kg gavage): 1 Mouse; Number of mice that died on each day after infection: day 6 ([16]; 1 mg/kg gavage): 0 Mouse; Number of mice that died on each day after infection: day 7 ([16]; 1 mg/kg gavage): 1 Mouse; Number of mice that died on each day after infection: day 8 ([16]; 1 mg/kg gavage): 0 Mouse; Average survival times (Days) ([16]; 1 mg/kg gavage): 11.4**** Days; Number of mice that died on each day after infection: day 4 ([16]; 5 mg/kg gavage): 2 Mouse; Number of mice that died on each day after infection: day 5 ([16]; 5 mg/kg gavage): 0 Mouse; Number of mice that died on each day after infection: day 6 ([16]; 5 mg/kg gavage): 2 Mouse; Number of mice that died on each day after infection: day 7 ([16]; 5 mg/kg gavage): 0 Mouse; Number of mice that died on each day after infection: day 8 ([16]; 5 mg/kg gavage): 0 Mouse; Average survival times (Days) ([16]; 5 mg/kg gavage): 10.4*** Days; survival time of mice infected with Escherichia coli [16]: superior to those of the Levofloxacin group

— patent US20250304620A1, “ANTIMICROBIAL PEPTIDE AND APPLICATION THEREOF” (priority 2023, published 2025)
